Results reported in article PMC8746695, “Zinc-Chelating Compounds as Inhibitors of Human and Bacterial Zinc Metalloproteases” (Molecules, 2021).
Entries after “also recorded” stand apart in the source; their conditions may differ. Read-outs that look alike come from different tables or passages of the source.

Assays:
[1] = molecular target: T1, recombinant human MMP-9 (Homo sapiens, UniProt P14780); experiment: Inhibition of MMP-9, fluorescence quenched peptide substrate McaPLGL(Dpa)AR-NH2; type: biochemical; settings: for Ki: substrate McaPLGL(Dpa)AR-NH2 4 µM, 30 min pre-incubation at room temperature, calculated from IC50, read-out: Ki ± s.d. MMP-9; for effect of 100 μM compound on MMP-9 activity: pre-incubation 0-45 min
T1 construct: made in house; host or cells: Sf9 insect cells
Description: The expression and purification of recombinant human full-length proMMP-9 (rpMMP-9) from Sf9 insect cells were performed as described previously. The amount of proMMP-9 was estimated spectrophotometrically at 280 nm using ε280 nm = 114.36 mM^−1 cm^−1 [48]. Activation of the recombinant proMMP-9 was performed with APMA (auto-activation) as described previously. The amount of active MMP-9 was determined by active site titration using galardin also described previously.
(§1) McaPLGL(Dpa)AR-NH2 was used as a substrate for MMP-9 and MMP-14, while McaRPPGFSAFK(Dnp)-OH was used as substrate for ALN, PLN and TLN. The reaction velocities/initial rates (v) were determined at 37 °C, at an excitation wavelength of 320 nm and an emission wavelength of 405 nm with a slit width of 10 nm using either a Perkin Elmer LS 50 Luminescence spectrometer and the FL WinLab Software Package (Perkin Elmer) or a Clario Star microplate reader (CLARIOstar® BMG LABTECH).
(§2) The test compounds were dissolved in 100% DMSO giving a concentration of 10 mM. A fixed substrate concentration of 4.0 µM in a total volume of 100 µL 0.1 M Hepes pH 7.5, 10 mM CaCl2, 0.005% Brij-35 and 1.0% DMSO, were used in all assays, except for ALN where the substrate concentration was 5.0 µM. The fixed enzyme concentrations were as follows; 0.05 nM MMP-9, 1.0 nM MMP-14, 1.4 nM ALN, 0.5 nM PLN and 0.21 nM TLN. Time-dependent inhibitory experiments without and with 100 μM of testing compounds were performed as follows. Compounds were either pre-incubated with the proteases for 15, 30 and 45 min at room temperature and the enzymatic reaction was started by adding the substrate, or not pre-incubated, i.e., the reaction was started by adding the protease to the mixture of substrate and compound. Control tests without compound present were performed in the same way. The reaction was followed for 30 min at 37 °C.
(§3) Enzymes with and without inhibitor were pre-incubated for 30 min at room temperature, and initial rate assays were performed as described above. Assays were performed using a Clario Star microplate reader (CLARIOstar® BMG LABTECH). The IC50 values were calculated in Graph Pad Prism 5 using Equation (1):(1) vi/v0=1/(1+10^(pIC50−pI)) where vi is the enzyme activity in the presence of inhibitor, v0 the activity in the absence of inhibitor, pI = −log [Inhibitor] in M and pIC50 = −log IC50 in M. All experiments were performed in at least triplicate.

[2] = molecular target: T2, human MT1-MMP/MMP-14 (catalytic domain) (Homo sapiens, UniProt P50281); experiment: Inhibition of MMP-14, fluorescence quenched peptide substrate McaPLGL(Dpa)AR-NH2; type: biochemical; settings: for Ki: substrate McaPLGL(Dpa)AR-NH2 4 µM, 30 min pre-incubation at room temperature, calculated from IC50, read-out: Ki ± s.d. MMP-14; for effect of 100 μM compound on MMP-14 activity: pre-incubation 0-45 min
T2 construct: human MT1-MMP/MMP-14 (catalytic domain); purchased Calbiochem (San Diego, CA, USA)
Description: as §1, §2, §3

[3] = molecular target: T3, pseudolysin (PLN) (Pseudomonas aeruginosa, UniProt P14756); experiment: Inhibition of pseudolysin (PLN), substrate McaRPPGFSAFK(Dnp)-OH; type: biochemical; settings: for effect of 100 μM compound on PLN activity: pre-incubation 0-45 min
T3 construct: purchased Calbiochem (San Diego, CA, USA)
Description: as §1, §2, §3

[4] = molecular target: T4, thermolysin (TLN) (Bacillus thermoproteolyticus, UniProt P00800); experiment: Inhibition of thermolysin (TLN), substrate McaRPPGFSAFK(Dnp)-OH; type: biochemical; settings: for Ki: substrate McaRPPGFSAFK(Dnp)-OH 4 µM, 30 min pre-incubation at room temperature, calculated from IC50, read-out: Ki ± s.d. TLN; for effect of 100 μM compound on TLN activity: pre-incubation 0-45 min
T4 construct: purchased Calbiochem (San Diego, CA, USA)
Description: as §1, §2, §3

[5] = molecular target: T5, aureolysin (ALN) (Staphylococcus aureus, UniProt P81177); experiment: Inhibition of aureolysin (ALN), substrate McaRPPGFSAFK(Dnp)-OH; type: biochemical; settings: for effect of 100 μM compound on ALN activity: pre-incubation 0-45 min
T5 construct: purchased BioCentrum Ltd. (Kraków, Poland)
Description: as §1, §2, §3

[6] = cited from earlier work
[7] = test system: Gram-negative pathogens; parameters: method as in PMID 32179522; settings: cited from earlier work
[8] = test system: VIM-2; parameters: method as in PMID 32179522; settings: cited from earlier work
[9] = test system: NDM-1; parameters: method as in PMID 32179522; settings: cited from earlier work
[10] = cited from earlier work; remark: listed apart in the source

T4 sequence (P00800 233-548): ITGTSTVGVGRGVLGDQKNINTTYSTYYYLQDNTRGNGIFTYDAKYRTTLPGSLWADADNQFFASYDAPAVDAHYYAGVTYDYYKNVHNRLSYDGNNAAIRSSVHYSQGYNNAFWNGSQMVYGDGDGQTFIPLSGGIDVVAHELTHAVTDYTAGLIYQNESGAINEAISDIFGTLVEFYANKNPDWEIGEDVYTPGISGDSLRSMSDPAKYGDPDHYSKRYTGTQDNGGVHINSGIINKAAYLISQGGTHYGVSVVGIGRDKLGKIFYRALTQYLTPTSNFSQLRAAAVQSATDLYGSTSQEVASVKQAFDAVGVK
T3 sequence (P14756 198-498): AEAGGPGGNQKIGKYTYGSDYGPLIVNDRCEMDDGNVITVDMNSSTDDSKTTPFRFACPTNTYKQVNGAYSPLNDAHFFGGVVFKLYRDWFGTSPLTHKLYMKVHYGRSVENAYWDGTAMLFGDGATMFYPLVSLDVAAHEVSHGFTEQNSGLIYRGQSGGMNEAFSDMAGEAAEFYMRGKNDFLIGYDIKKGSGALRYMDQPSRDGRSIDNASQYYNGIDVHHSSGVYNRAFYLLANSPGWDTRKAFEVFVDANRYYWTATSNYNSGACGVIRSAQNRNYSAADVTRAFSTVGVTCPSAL
T1 sequence (P14780 107-707 limits assumed): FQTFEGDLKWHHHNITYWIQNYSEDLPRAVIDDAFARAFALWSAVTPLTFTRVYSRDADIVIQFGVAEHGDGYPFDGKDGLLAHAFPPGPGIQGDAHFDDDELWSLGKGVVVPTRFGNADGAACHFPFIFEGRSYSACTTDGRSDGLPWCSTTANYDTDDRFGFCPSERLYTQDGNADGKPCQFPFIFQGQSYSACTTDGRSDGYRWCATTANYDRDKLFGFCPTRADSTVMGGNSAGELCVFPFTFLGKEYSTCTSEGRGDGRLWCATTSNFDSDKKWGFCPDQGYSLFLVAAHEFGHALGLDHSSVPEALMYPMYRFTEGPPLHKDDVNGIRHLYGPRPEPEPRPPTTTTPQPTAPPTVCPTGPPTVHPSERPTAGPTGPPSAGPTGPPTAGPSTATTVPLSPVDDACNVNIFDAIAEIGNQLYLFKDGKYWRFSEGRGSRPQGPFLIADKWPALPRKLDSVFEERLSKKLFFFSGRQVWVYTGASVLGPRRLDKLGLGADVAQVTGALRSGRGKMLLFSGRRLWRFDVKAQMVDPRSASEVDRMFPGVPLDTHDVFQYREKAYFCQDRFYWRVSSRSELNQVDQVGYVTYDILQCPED
T5 sequence (P81177 209-509): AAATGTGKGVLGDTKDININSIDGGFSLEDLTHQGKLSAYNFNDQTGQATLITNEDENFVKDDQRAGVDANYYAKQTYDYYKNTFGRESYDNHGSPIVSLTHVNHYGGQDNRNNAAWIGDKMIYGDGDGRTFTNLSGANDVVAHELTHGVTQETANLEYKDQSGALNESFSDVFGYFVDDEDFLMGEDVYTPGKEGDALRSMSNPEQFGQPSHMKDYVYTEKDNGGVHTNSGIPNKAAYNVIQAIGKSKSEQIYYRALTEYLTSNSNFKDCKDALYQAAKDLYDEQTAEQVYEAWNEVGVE

CCN(C[C@H](O)[C@@H](O)[C@H](O)[C@H](O)CO)C(=O)c1ccc(CN(Cc2ccccn2)Cc2ccccn2)nc1 [Zn225]
Ki [1]: 28 ± 7 µM | Ki [2]: 4.5 ± 0.4 µM | Ki [3]: 5 ± 2 µM | Ki [4]: 9 ± 2 µM

COC(=O)c1ccc(CN(Cc2cccs2)Cc2cccs2)nc1 [Zn216]
effect of 100 μM compound on MMP-14 activity [2]: weak inhibition or lack of inhibition | effect of 100 μM compound on PLN activity [3]: weak inhibition or lack of inhibition

O=C(O)c1ccc(CN(Cc2ccccn2)Cc2ccccn2)nc1 [Zn146]
Ki [1]: 21 ± 5 µM | Ki [2]: 3.8 ± 0.3 µM | Ki [5]: 25 ± 2 µM | Ki [3]: 4 ± 1 µM

O=C(O)c1ccc(CN(CCN(Cc2ccccn2)Cc2ccccn2)Cc2ccc(C(=O)O)cn2)nc1 [Zn239]
Ki [1]: 58 ± 14 µM | Ki [2]: 6.1 ± 0.5 µM | Ki [3]: 5 ± 2 µM | Ki [4]: 32 ± 5 µM

CC(N)C(=O)NC(C)C(=O)N1CCN(C(=O)c2ccc(CN(Cc3ccccn3)Cc3ccccn3)nc2)CC1 (stereo not shown) [Zn177]
Ki [1]: 56 ± 14 µM | Ki [2]: 11.2 ± 0.9 µM | Ki [3]: 11 ± 4 µM

NCCc1ccc(NC(=O)CN(CCN(Cc2ccccn2)Cc2ccccn2)Cc2ccccn2)cc1 [Zn45]
Ki [2]: 2.5 ± 0.2 µM | Ki [3]: 2.8 ± 0.9 µM | Ki [4]: 7 ± 1 µM

COC(=O)Cc1ccc(NC(=O)c2ccc(CN(Cc3ccccn3)Cc3ccccn3)nc2)cc1 [Zn244]
Ki [1]: 22 ± 6 µM | Ki [2]: 4 ± 0.3 µM | IC50 [3]: 4.46 ± 0.05 µM | Ki [3]: 4 ± 1 µM

O=C(NC[C@H](O)[C@@H](O)[C@H](O)[C@H](O)CO)c1ccc(CN(Cc2ccccn2)Cc2ccccn2)nc1 [Zn230]
Ki [1]: 22 ± 6 µM | Ki [2]: 3.5 ± 0.3 µM | Ki [5]: 20 ± 2 µM | Ki [3]: 1.1 ± 0.3 µM | Ki [4]: 12 ± 2 µM

CN(C[C@H](O)[C@@H](O)[C@H](O)[C@H](O)CO)C(=O)c1ccc(CN(Cc2ccccc2)Cc2ccccc2)nc1 [Zn222]
effect of 100 μM compound on MMP-9 activity [1]: weaker binding than Zn148 | effect of 100 μM compound on MMP-14 activity [2]: weaker binding than Zn148; also recorded: binding was prevented | Kd ([6]; read-out: Kd (zinc)): 1000 nM | effect of 100 μM compound on ALN activity [5]: no effect | reversal of carbapenem resistance in Gram-negative pathogens [7]: lacked the ability to reverse carbapenem resistance | inactivation of MBL VIM-2 [8]: did not inactivate | inactivation of MBL NDM-1 [9]: did not inactivate | effect of 100 μM compound on PLN activity [3]: weaker binding than Zn148 | effect of 100 μM compound on TLN activity [4]: no effect

CC(=O)OC[C@@H](OC(C)=O)[C@@H](OC(C)=O)[C@H](OC(C)=O)[C@H](CN(C)C(=O)c1ccc(CN(Cc2ccccn2)Cc2ccccn2)nc1)OC(C)=O [Zn224]
Ki [2]: 4.5 ± 0.4 µM | Ki [3]: 13 ± 4 µM

c1ccc(CNCc2ccccn2)nc1 [DPA, di(2-pyridinemethyl)amine, reference compound]
effect of 100 μM compound on MMP-14 activity [2]: greatly enhanced | Kd ([6]; read-out: Kd (zinc-binder)): ~10 nM | Ki [3]: 4 ± 1 µM | effect of 100 μM compound on PLN activity [3]: Moderately strong inhibition

CC(N)C(=O)NC(C)C(=O)NCCc1ccc(NC(=O)c2ccc(CN(Cc3ccccn3)Cc3ccccn3)nc2)cc1 (stereo not shown) [Zn155]
Ki [1]: 26 ± 6 µM | Ki [2]: 2.4 ± 0.2 µM | Ki [5]: 60 ± 6 µM | Ki [3]: 6 ± 2 µM

COC(=O)c1ccc(CN(Cc2cccs2)Cc2cccs2)s1 [Zn215]
effect of 100 μM compound on MMP-14 activity [2]: weak inhibition or lack of inhibition | effect of 100 μM compound on PLN activity [3]: weak inhibition or lack of inhibition

CN(C[C@H](O)[C@@H](O)[C@H](O)[C@H](O)CO)C(=O)c1ccc(CN(Cc2ccccc2)Cc2ccccn2)nc1 [Zn223]
effect of 100 μM compound on MMP-9 activity [1]: weaker binding than Zn148 | effect of 100 μM compound on MMP-14 activity [2]: weaker binding than Zn148; also recorded: binding was prevented | Kd ([6]; read-out: Kd (zinc)): 100 nM | effect of 100 μM compound on ALN activity [5]: no effect | reversal of carbapenem resistance in Gram-negative pathogens [7]: lacked the ability to reverse carbapenem resistance | inactivation of MBL VIM-2 [8]: reduced capability to inactivate | inactivation of MBL NDM-1 [9]: reduced capability to inactivate | effect of 100 μM compound on PLN activity [3]: weaker binding than Zn148 | effect of 100 μM compound on TLN activity [4]: no effect

CN(C[C@H](O)[C@@H](O)[C@H](O)[C@H](O)CO)C(=O)c1ccc(CN(Cc2ccccn2)Cc2ccccn2)nc1 [Zn148]
Ki [2]: 8.6 ± 0.7 µM | acute toxicity ([10]; female BALB/c mice): limited in vivo toxicity | acute toxicity ([10]; mouse, in vivo): without acute toxicity | Kd ([6]; read-out: Kd (zinc)): 0.001 nM | effect of 100 μM compound on ALN activity [5]: no or only a limited effect | reversal of carbapenem resistance in Gram-negative pathogens [7]: reverse carbapenem resistance | inactivation of MBL VIM-2 [8]: irreversible inhibitor | inactivation of MBL NDM-1 [9]: irreversible inhibitor | IC50 [3]: 6.07 ± 0.08 µM | Ki [3]: 5 ± 2 µM | effect of 100 μM compound on TLN activity [4]: no or only a limited effect

COC(=O)c1ccc(CN(Cc2ccccn2)Cc2ccccn2)nc1 [Zn145]
Ki [2]: 1.5 ± 0.1 µM | Ki [3]: 12 ± 4 µM

O=C(NCCc1ccc(NC(=O)c2ccc(CN(Cc3ccccn3)Cc3ccccn3)nc2)cc1)c1ccc(CN(Cc2ccccn2)Cc2ccccn2)nc1 [Zn175]
Ki [1]: 6 ± 2 µM | Ki [5]: 14 ± 1 µM | Ki [3]: 7 ± 2 µM

O=C(NCc1ccc(CN(Cc2ccccn2)Cc2ccccn2)nc1)C1OC(O)C(O)C(O)C1O (stereo not shown) [Zn227]
Ki [1]: 77 ± 19 µM | Ki [2]: 4.8 ± 0.4 µM | Ki [3]: 9 ± 3 µM | Ki [4]: 11 ± 2 µM
